Measurements reported in patent publication US20170231890A1, “Methods And Compositions For Stimulating Collagen Synthesis In Skin Cells” (ELC Management LLC, priority 2016, published 2017).

Tested on: normal human dermal fibroblasts (NHDF) from a donor
Test: collagen induction assay (Pro-collagen Type I EIA) in aged fibroblasts
Assay type: cell-based
Details: for % Increase in Collagen Induction: 5 days, vs DMEM control
Experimental: Tripeptide-32 was tested at various concentrations for its ability to stimulate collagen production in normal human dermal fibroblasts (“NHDF”) from a donor in a collagen induction assay. Tripeptide-32 was tested at 1× (0.2%) 0.5× (0.1%) and 0.2× (0.04%) concentration diluted in DMEM (“Dulbecco's Modified Eagle Medium”) supplemented with 10% Hyclone® bovine calf serum and 1% Cellgro® penicillin-streptomycin solution (“DMEM”). All percentages are by weight of the total composition.
Cell Growth and Maintenance. Aged NHDF were obtained from ZenBio. Fibroblasts were cultured in DMEM 1× (Life Tech) supplemented with 10% bovine calf serum (“BCS”) (Hyclone) and 1% PenStrep (“PS”) solution (Cellgro). Cells were regularly maintained; subcultured as needed.
Plating Cells. Normal human dermal fibroblasts (NHDF, aged) were plated on a 96-well plate in supplemented DMEM (as indicated above). All rows, except for Row A, were seeded with cells (Row A was left blank to allow for background subtraction). Plate was allowed to incubate at standard conditions (37° C., 5% CO2, 95% humidity) overnight.
Preparation & Treatment of Cells. The following treatments were created in full media (1% P/S and 10% BCS supplemented) DMEM: (1) Laminaria digitata extract (0.5%); Acetyl hexapeptide-8 solution (a mixture of 0.05% Acetyl hexapeptide-8, 99.35% water and the remainder preservatives) (10%); and whey protein (0.1%, solid) with the remainder DMEM (the “Mixture”); (2) Mixture+Tripeptide-32: Laminaria digitata extract (0.5%), Acetyl hexpeptide-8 solution (10%), whey protein (0.1%) and Tripeptide-32 (0.2%) in DMEM at 1× (0.2%), 0.5× (0.1%), and 0.2× (0.04%) concentration; (3) Tripeptide-32 alone at 1× (0.2%), 0.5× (0.1%) and 0.2× (0.04%) concentration. Each treatment (200 ul/well) was added to the corresponding well of the 96-well plate. Treated plate was allowed to incubate at standard conditions (37° C., 5% CO2, 95% humidity) for 5 days.
Assessment of Collagen Production. Collagen production was assessed using the Pro-collagen Type I collagen EIA Kit (Takara) as per manufacturer's protocol, exactly as described. Plate was read using the Gemini M2E plate reader and results were compared.
The combination of Tripeptide-32 and a mixture of Acetyl hexapeptide-8, Laminaria digitata extract and whey protein were tested for collagen stimulation in NHDF from a donor. Tripeptide-32 at a concentration of 0.2% was combined with a mixture of Acetyl hexapeptide-8 solution (0.05% Acetyl hexapeptide-8, 99.35% water, remainder preservatives) (10%); 0.5% Laminaria digitata extract solution, and 0.1% whey protein in Supplemented DMEM.
The tests were performed according to the method in Example 1.

Substance: Ser-Thr-Pro-NH2 [Tripeptide-32]
- collagen synthesis (result in words) (0.2× (0.04%)): decreased collagen synthesis
- % Increase in Collagen Induction (0.2× concentration (Tripeptide-32 0.04%)): −15.39%
- collagen synthesis (result in words) (0.5× (0.1%) and 1× (0.2%) concentrations): nearly insignificant increase in collagen synthesis
- % Increase in Collagen Induction (0.5× concentration (Tripeptide-32 0.1%)): +1.17%
- % Increase in Collagen Induction (1.0× concentration (Tripeptide-32 0.2%)): +3.27%
